In experiment [1] the target is T1, LMP7 (Homo sapiens, UniProt P28062).
T1 construct: using MOLT-4 cell lysate as the enzyme source of LMP7; endogenous in cells; host or cells: MOLT-4 (human acute lymphoblastic leukemia cells)
As to the kind of experiment: Enzymatic inhibitory activity on LMP7 (MOLT-4 cell lysate, Ac-ANW-AMC substrate). The experiment is classed as biochemical. The settings on record: 1 hour pre-incubation. An excerpt:
LMP7 is a catalytic subunit of immunoproteasomes. In this experiment, an enzymatic detection platform was established using its hydrolytic enzyme activity and used for compound activity detection. Using Ac-ANW-AMC (Bonston Biochem, Cat #S-320) as a substrate for LMP7, the amount of fluorescent group AMC (7-amino-4-methylcoumarin) released after hydrolysis can reflect the enzymatic activity. MOLT-4 cells are human acute lymphoblastic leukemia cells and have been identified as cells with high expression of LMP7. We established an enzymatic detection method for compound inhibition on LMP7 using MOLT-4 cell lysate as the enzyme source of LMP7 and detected the compound inhibitory activity (half inhibitory concentration, IC50).
(§1) MOLT-4 cells were cultured in a 75 cm^2 cell culture flask (Corning) (37° C., 95% air, and 5% CO2) with RPMI-1640 (Biological Industries) medium containing 10% fetal bovine serum (Biological Industries) and 1% Pen Strep (Gibco) and passaged 2-3 times one week. 1×10^7 MOLT-4 cells were collected, resuspended in 1 ml of PBS (Solarbio), and centrifuged at 3000 rpm for 5 minutes. The supernatant was aspirated off. The cells were resuspended in 500 μl of lysis buffer (20 mM Tris, pH 8.0, 5 mM EDTA, plus Protease inhibitor (1:1000) and Phosphatase Inhibitor (1:100) when used) and left on ice for 30 minutes. The cells were broken by supersonic technique, 0.5 S on, 0.5 S off, for 2.5 S. The centrifuge was performed at 12000 rpm, 4° C. for 10 minutes. The supernatant was the cell lysate and protein quantification was performed by using the BCA method (Thermo, #23225).
Compounds were diluted in a 5-fold gradient with 100% DMSO for a total of 9 concentrations: 2 W for each concentration was added to a 48-μl reaction buffer (20 mM Tris, pH 8.0, 0.5 mM EDTA) and mixed well as 4* compound (final concentrations: 2000, 400, 80, 16, 3.2, 0.64, 0.128, 0.0256, and 0 nM) for later use. A reaction buffer was used to prepare 4* MOLT-4 cell lysate at a final concentration of 20 ng/μl and 2*Ac-ANW-AMC at a final concentration of 100 µM. 5 μl of 4* compound was added to a 384-well plate (OptiPlate-384, purchased from PerkinElmer), added with 5 W of 4* cell lysate, centrifuged, and reacted in an incubator at 23° C. for 1 hour. 10 W of 2* Ac-ANW-AMC was added and the reaction was started by centrifugation at 23° C. in the dark for 2 hours. After completion of the reaction, the signal value (excitation wavelength 345 nm/emission wavelength 445 nm) was read on the CLARIO star^Plus (purchased from BMG LRBTECH). Enzyme activity was determined at 9 concentrations for each compound, and data were processed using the GraphPad Prism software to calculate the half inhibitory concentration of the compound on LMP7, i.e. the IC50 value.

Experiment [2] addresses T2, β5 (Homo sapiens, UniProt P28074).
T2 construct: using HEK-293 cell lysate as the enzyme source of D5; endogenous in cells; host or cells: HEK-293 (human embryonic kidney cells)
As to the kind of experiment: Enzymatic inhibitory activity on β5 (HEK-293 cell lysate, Ac-WLA-AMC substrate). Type of experiment: biochemical. The settings on record: 1 hour pre-incubation.
Excerpt: β5 is a catalytic subunit of immunoproteasomes. In this experiment, an enzymatic detection platform was established using its hydrolytic enzyme activity and used for compound activity detection. Using Ac-WLA-AMC (Bonston Biochem, Cat #5-330) as a substrate for D5, the amount of fluorescent group AMC (7-amino-4-methylcoumarin) released after hydrolysis can reflect the enzymatic activity. […] We established an enzymatic detection method for compound inhibition on D5 using HEK-293 cell lysate as the enzyme source of D5 and detected the compound inhibitory activity (half inhibitory concentration, IC50). The enzymatic inhibitory activity of compounds against D5 was used as a measure index of compound selectivity.
as §1, with “HEK-293” for “MOLT-4”, “DMEM” for “RPMI-1640”, “performed” for “performed by”
Compounds were diluted in a 5-fold gradient with 100% DMSO for a total of 9 concentrations. 2 W for each concentration was added to a 48-μl reaction buffer (20 mM Tris, pH 8.0, 0.5 mM EDTA) and mixed well as 4* compound (final concentrations: 100000, 20000, 4000, 800, 160, 32, 6.4, 1.28, and 0 nM) for later use. A reaction buffer was used to prepare 4*HEK-293 cell lysate at a final concentration of 25 ng/μl and 2*Ac-WLA-AMC at a final concentration of 20 μM. 5 W of 4* compound was added to a 384-well plate (OptiPlate-384, purchased from PerkinElmer), added with 5 W of 4*HEK-293 cell lysate, centrifuged, and reacted in an incubator at 23° C. for 1 hour. 10 W of 2* Ac-WLA-AMC was added and the reaction was started by centrifugation at 23° C. in the dark for 2 hours. After completion of the reaction, the signal value (excitation wavelength 345 nm/emission wavelength 445 nm) was read on the CLARIO star^Plus (purchased from BMG LRBTECH). Enzyme activity was determined at 9 concentrations for each compound, and data were processed using the GraphPad Prism software to calculate the half inhibitory concentration of the compound on D5, i.e. the IC50 value.

The target of experiment [3] is T1, LMP7. The experiment in a line: Cytological inhibitory activity on LMP7 in MOLT-4 cells. Type of experiment: cell-based. The settings on record: incubation for 2 hours with compound, read-out: Cytological activity data LMP7 Activity (MOLT-4Cell). As for the experimental part: MOLT-4 are human acute lymphoblastic leukemia cells and have been identified as cells with high expression of LMP7. In this experiment, the compounds were pre-incubated with MOLT-4, and Ac-ANW-AMC (BonstonBiochem, Cat #S-320) was used as the substrate of LMP7 to establish the detection method for the enzymatic activity of LMP7 in cells and detect the compound inhibitory activity (half inhibitory concentration, IC50).
Cells were plated in a 24-well plate (Corning) at a concentration of 1.5×10^5/ml per well. The next day compounds were prepared and diluted in a 5-fold gradient from 2 mM in 100% DMSO for a total of 8 concentrations. 2 μl for each concentration of the compound was added to a 1-ml cell culture medium, supplemented with 1 ml of RPMI-1640 only (final FBS concentration 5%, v/v). The compounds were mixed with the cells. After incubation for 2 hours in the incubator, the cells were centrifuged at 2000 rpm for 8 minutes to discard the supernatant. The cells were washed once with 2 ml PBS (Solarbio), and centrifuged again to discard the supernatant. The cells were resuspended in 100 μl of lysis buffer (20 mM Tris, pH 8.0, 5 mM EDTA, plus Protease inhibitor (1: 100) and Phosphatase Inhibitor (1:100) when used) and left in a 4° C. refrigerator for 45 minutes.
After 2 min. of centrifuge at 2000 rpm, the lysate was transferred from the 24-well plate to a 96-well plate, and centrifuged at 2000 rpm, 4° C., for 15 min. The supernatant was the lysate. Protein quantification was performed using the BCA method (Thermo, #23225). A 2* lysate was prepared with the reaction buffer (20 mM Tris, pH 8.0, 0.5 mM EDTA) at a final concentration of 20 ng/μl. 2* Ac-ANW-AMC was prepared with the reaction buffer at a final concentration of 100 μM. 10 µl of 2* lysate was added to a 384-well plate (OptiPlate-384, purchased from PerkinElmer), and added with 10 W of 2* Ac-ANW-AMC. The reaction was started by centrifugation at 23° C. in the dark for 1 hour. After completion of the reaction, the signal value (excitation wavelength 345 nm/emission wavelength 445 nm) was read on the CLARIO starPlus (purchased from BMG LRBTECH). Enzyme activity was determined at 8 concentrations for each compound, and data were processed using the GraphPad Prism software to calculate the half inhibitory concentration of the compound on LMP7 hydrolase in MOLT-4 cells, i.e. the IC50 value.

Here are results for 13 compounds from US20240425529A1, “BORIC ACID DERIVATIVE” (SHOUYAO HOLDINGS (BEIJING) CO., LTD., priority 2021, published 2024).

Regarding `COc1ccc2nc(NC(=O)C(=O)N[C@@H](Cc3coc4ccccc34)B(O)O)sc2c1` [Ex. 26, (R)-(2-(benzofuran-3-yl)-1-(2-oxo-2-((6-methoxybenzo[d]thiazol-2-yl)amino)acetamido)ethyl)boronic acid], the values for the IC50 in experiment [1], in experiment [2] and in experiment [3] were 4.86 nM, 19.4 nM and 0.73 nM, respectively.

In experiment [1], `CNC(=O)C(=O)N[C@@H](Cc1coc2ccccc12)B(O)O` [Ex. 2, (R)-(2-(benzofuran-3-yl)-1-(2-(methylamino)-2-oxoacetamido)ethyl)boronic acid] came in with an IC50 of 26.9 nM.

As for `CC1(C)[C@@H]2C[C@H]3OB([C@H](Cc4coc5ccccc45)NC(=O)C(=O)Nc4cnccn4)O[C@@]3(C)[C@H]1C2` [Ex. 17, (R)-(2-(benzofuran-3-yl)-1-(2-oxo-2-(pyrazin-2-ylamino)acetamido)ethyl) boronic acid (1S,2S,3R,5S)-(+)-pinane-2,3-diol ester], the IC50 came out at 2.6 nM in experiment [1], 30.1 nM in experiment [2] and 0.8 nM in experiment [3].

For the compound `O=C1CC[C@H](N2C(=O)c3ccc(N4CCN(CC5CCN(C(=O)C(=O)N[C@@H](Cc6coc7ccccc67)B(O)O)CC5)CC4)cc3C2=O)C(=O)N1` [Ex. 16, ((R)-2-(benzofuran-3-yl)-1-(2-(4-((4-(2-((S)-2,6-dioxopiperidin-3-yl)-1,3-dioxoisoindolin-5-yl)piperazin-1-yl)methyl)piperidin-1-yl)-2-oxoacetamido)ethyl)boronic acid], the IC50 was 32.9 nM in experiment [1] and 58.7 nM in experiment [2].

As for `CC1(C)[C@@H]2C[C@H]3OB([C@H](Cc4coc5ccccc45)NC(=O)C(=O)Nc4ccc(F)cc4F)O[C@@]3(C)[C@H]1C2` [Ex. 54, (R)-(2-(benzofuran-3-yl)-1-(2-oxo-2-(2,4-difluorophenylamino)acetamido)ethyl)boronic acid (1S,2S,3R,5S)-(+)-pinane-2,3-diol ester], the IC50 in experiment [1] came to 0.89 nM; in experiment [2] it was 23.7 nM; in experiment [3], 5.33 nM.

On to `CC1(C)OB([C@H](Cc2coc3ccccc23)NC(=O)C(=O)Nc2cnccn2)OC1(C)C` [Ex. 19, N-((1R)-2-(1-benzofuran-3-yl)-1-(tetramethyl-1,3,2-dioxaborolan-2-yl)ethyl)-N-(pyrazin-2-yl)oxalamide], for which the IC50 in experiment [1] amounted to 1.11 nM; in experiment [2], 12.2 nM; in experiment [3], 0.69 nM.

With `CC1(C)COB([C@H](Cc2coc3ccccc23)NC(=O)C(=O)Nc2cnccn2)OC1` [Ex. 71], the values for the IC50 in experiment [1], in experiment [2] and in experiment [3] were 1.18 nM, 28.5 nM and 1.35 nM, respectively.

On to `O=C(N[C@H]1CCOC1)C(=O)N[C@@H](Cc1coc2ccccc12)B(O)O` [Ex. 7, ((R)-2-(benzofuran-3-yl)-1-(2-oxo-2(((S)-tetrahydrofuran-3-yl)amino)acetamido)ethyl) boronic acid], for which the values for the IC50 in experiment [1] and in experiment [2] were 7.7 nM and 123 nM, respectively.

With `O=C(NC1CCOCC1)C(=O)N[C@@H](Cc1coc2ccccc12)B(O)O` [Ex. 11, (R)-(2-(benzofuran-3-yl)-1-(2-oxo-2-((tetrahydro-2H-pyran-4-yl)amino)acetamido)ethyl)boronic acid], the IC50 in experiment [1] worked out at 7.3 nM; in experiment [2] it was 123 nM.

In turn, `CN(C)C(=O)C(=O)N[C@@H](Cc1coc2ccccc12)B(O)O` [Ex. 6, (R)-(2-(benzofuran-3-yl)-1-(2-(dimethylamino)-2-oxoacetamido)ethyl)boronic acid] gave an IC50 in experiment [1] of 28.5 nM.

`C[C@@H](NC(=O)C(=O)N[C@@H](Cc1coc2ccccc12)B(O)O)c1ccccn1` [Ex. 8, ((R)-2-(benzofuran-3-yl)-1-(2-oxo-2-(((R)-1-(pyridin-2-yl)ethyl)amino)acetamido)ethyl)boronic acid] had an IC50 in experiment [1] of 24.7 nM.

In the case of `CCN(CC)C(=O)C(=O)N[C@@H](Cc1coc2ccccc12)B(O)O` [Ex. 4, (R)-(2-(benzofuran-3-yl)-1-(2-(diethylamino)-2-oxoacetamido)ethyl)boronic acid], the IC50 in experiment [1] was 22.3 nM.

With `CON(C)C(=O)C(=O)N[C@@H](Cc1coc2ccccc12)B(O)O` [Ex. 3, (R)-(2-(benzofuran-3-yl)-1-(2-(methoxy(methyl)amino)-2-oxoacetamido)ethyl) boronic acid], the IC50 in experiment [1] stood at 13 nM; in experiment [2], 507 nM.
